Literature values in US20140031355A1, “HETEROCYCLIC COMPOUNDS AND THEIR USES” (Amgen Inc., priority 2010, published 2014).

Experiments:
[1] = test system: rheumatoid arthritis model; details: in vivo
[2] = test system: systemic lupus erythematosis model; details: in vivo
[3] = test system: passive cutaneous anaphylaxis (PCA); details: absence of functional delta (IC 87114 and p110δ D910A mice)
p110δ = molecular target: T1, p110δ (Homo sapiens, UniProt O00329)
T1 sequence (O00329 1-1044): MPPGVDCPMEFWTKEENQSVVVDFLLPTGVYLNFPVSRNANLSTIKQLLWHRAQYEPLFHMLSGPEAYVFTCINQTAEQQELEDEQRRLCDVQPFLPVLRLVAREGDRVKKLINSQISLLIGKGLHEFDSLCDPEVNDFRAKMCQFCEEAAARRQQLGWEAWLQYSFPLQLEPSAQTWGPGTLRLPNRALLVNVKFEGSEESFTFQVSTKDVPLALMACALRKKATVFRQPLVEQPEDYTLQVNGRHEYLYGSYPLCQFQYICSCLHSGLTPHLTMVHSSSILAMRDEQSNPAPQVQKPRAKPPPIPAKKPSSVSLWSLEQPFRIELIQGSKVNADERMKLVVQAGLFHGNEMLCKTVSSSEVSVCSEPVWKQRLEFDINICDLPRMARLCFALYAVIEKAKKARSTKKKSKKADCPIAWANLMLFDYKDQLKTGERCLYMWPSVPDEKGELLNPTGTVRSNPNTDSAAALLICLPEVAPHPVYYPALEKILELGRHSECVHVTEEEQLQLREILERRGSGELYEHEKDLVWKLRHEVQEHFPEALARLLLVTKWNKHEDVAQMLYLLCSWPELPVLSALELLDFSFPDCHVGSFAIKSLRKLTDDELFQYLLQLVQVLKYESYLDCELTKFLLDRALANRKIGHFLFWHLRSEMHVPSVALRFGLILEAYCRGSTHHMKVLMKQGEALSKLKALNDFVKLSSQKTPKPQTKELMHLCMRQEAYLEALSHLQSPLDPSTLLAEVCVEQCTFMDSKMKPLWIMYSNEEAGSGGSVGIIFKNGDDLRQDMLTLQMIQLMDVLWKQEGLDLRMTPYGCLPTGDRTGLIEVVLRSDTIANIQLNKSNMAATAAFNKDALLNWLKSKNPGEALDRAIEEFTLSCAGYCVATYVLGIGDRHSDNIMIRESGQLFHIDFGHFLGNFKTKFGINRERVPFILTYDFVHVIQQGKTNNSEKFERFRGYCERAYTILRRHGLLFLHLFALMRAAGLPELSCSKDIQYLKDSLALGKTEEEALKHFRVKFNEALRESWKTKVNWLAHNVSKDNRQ

[4] = test system: ovalbumin-induced airway inflammation

SMILES	efficacy in a mouse model of rheumatoid arthritis [1]	onset of disease in a model of systemic lupus erythematosis [2]	passive cutaneous anaphylaxis (PCA) [3]	activity against any protein kinases tested (protein kinases)	inhibits p110δ (p110δ)	inflammation and disease in a murine model of asthma [4]
O=C1NC(=O)/C(=C\c2ccc3nccnc3c2)S1 [AS 605240]	efficacious	delay onset of disease	–	–	–	–
Cc1ccccc1-n1c(Cn2cnc3c(N)ncnc32)nc2cccc(C)c2c1=O [IC87114]	–	–	significantly reduced	no activity	high nanomolar range (triple digit)	significantly ameliorate
